This note sets out measurements from patent US20170101432A1, “CRYSTALLINE 3',5'-CYCLIC DIGUANYLIC ACID” (Yamasa Corporation, priority 2014, published 2017).

The data set in a line: Stability: storage at 50° C. in a desiccator containing saturated saline, HPLC purity measured. The class given is physicochemical. Conditions: for relative residual ratio: storage at 50° C., saturated saline desiccator. Here is the method:
Note that the high performance liquid chromatography method was performed under the following condition. Column: Hydrosphere C18 (product of YMC Co., Ltd.) Eluate: 0.1M TEA-P (pH 6.0) Detection method: detection by UV 260 nm The crystals of 3′,5′-cyclic diguanylic acid of the present invention and the co-crystals with cobalt and the co-crystals with magnesium of Reference Examples were stored at 50° C. in a desiccator containing saturated saline, and HPLC purity of each of them was measured on days 0, 7, 31, 84 and 167 after the start of storage. The result of measurement of HPLC purity (%) is shown in Table 5 below and relative residual ratios (%) on each day for measurement after the start of storage, taking the purity of day 0 of measurement as 100%, are shown in Table 6.

[1] abbreviates: day 0, purity of day 0 taken as 100%.
Where [2] appears, read: day 0 after the start of storage at 50° C. in a desiccator containing saturated saline.
Setting [3] is: day 7, purity of day 0 taken as 100%.
The mark [4] stands for this setting: day 7 of storage at 50° C. in a desiccator containing saturated saline.
[5] abbreviates: day 31, purity of day 0 taken as 100%.
The mark [6] stands for this setting: day 31 of storage at 50° C. in a desiccator containing saturated saline.
Setting [7] is: day 84, purity of day 0 taken as 100%.
Where [8] appears, read: day 84 of storage at 50° C. in a desiccator containing saturated saline.
The mark [9] stands for this setting: day 167, purity of day 0 taken as 100%.
[10] abbreviates: day 167 of storage at 50° C. in a desiccator containing saturated saline.

Regarding `Nc1nc2c(ncn2C2OC3COP(=O)(O)OC4C(COP(=O)(O)OC3C2O)OC(n2cnc3c(=O)[nH]c(N)nc32)C4O)c(=O)[nH]1` (stereo not shown) [Mg, 3′,5′-cyclic diguanylic acid], the relative residual ratio under setting [1] was 100%; the relative residual ratio under setting [3] was determined as 100%; the relative residual ratio under setting [5] is reported as 99.8%; the relative residual ratio under setting [7] was found to be 100.0%; the relative residual ratio under setting [9] stood at 99.5%. In addition, the HPLC purity by setting is: under setting [2], 99.8%; under setting [4], 99.7%; under setting [6], 99.6%; under setting [8], 99.8%; under setting [10], 99.3%.

`Nc1nc2c(ncn2[C@@H]2O[C@@H]3COP(=O)(O)OC4C(O)[C@H](n5cnc6c(=O)[nH]c(N)nc65)O[C@@H]4COP(=O)(O)OC3C2O)c(=O)[nH]1` (stereo partly shown) [Present Invention, 3′,5′-cyclic diguanylic acid]: the “decrease rate of HPLC purity” value (after storing at 50° C. for 167 days in a desiccator containing saturated saline) was “less than 1%”. In addition, the relative residual ratio reads like this: under setting [1], 100%; under setting [3], 100.1%; under setting [5], 99.6%; under setting [7], 99.9%; under setting [9], 100.0%. The HPLC purity by setting is: under setting [2], 99.0%; under setting [4], 99.1%; under setting [6], 98.6%; under setting [8], 98.9%; under setting [10], 98.9%.

Turning to `Nc1nc2c(ncn2C2OC3COP(=O)(O)OC4C(COP(=O)(O)OC3C2O)OC(n2cnc3c(=O)[nH]c(N)nc32)C4O)c(=O)[nH]1` (stereo not shown) [Co, 3′,5′-cyclic diguanylic acid], the relative residual ratio runs as follows: under setting [1], 100%; under setting [3], 100%; under setting [5], 99.8%; under setting [7], 99.8%; under setting [9], 99.6%. Also, the HPLC purity turned out to be 99.9% under setting [2]; 99.9% under setting [4]; 99.7% under setting [6]; 99.7% under setting [8]; 99.4% under setting [10].
